# Test results taken from ChEMBL document CHEMBL1139769, “PASS-predicted design, synthesis and biological evaluation of cyclic nitrones as nootropics” (Bioorg Med Chem Lett, 2007).
# How the values were obtained:
# Mus musculus [1] = experiment: Nootropic effect in Albino mouse assessed as decrease in transfer latency at 75 mg/kg, po after 24 hrs by elevated plus maze test; assay type: functional; parameters: scale not given: the % may be the effect or the level left
# [2] = Partition coefficient, log P of the compound; assay type: physicochemical; conditions: octanol/water
# Mus musculus [3] = experiment: Nootropic effect in Albino mouse assessed as decrease in transfer latency at 200 mg/kg, ip after 24 hrs by elevated plus maze test; assay type: functional; parameters: scale not given: the % may be the effect or the level left; conditions: route intraperitoneal
compound,measurement,setting,value
O=[N+]([O-])c1ccc(C2=[N+]([O-])C(c3ccccc3)N(C3CCCCC3)C2)cc1 (centres undefined),Activity,Mus musculus [1],51.6%
same,logP,[2],2.41
CN(C)c1ccc(C2N(Cc3ccccc3)CC(c3ccc([N+](=O)[O-])cc3)=[N+]2[O-])cc1 (centres undefined),Activity,Mus musculus [1],10.8%
same,logP,[2],2.02
COc1ccc(N2CC(c3ccc([N+](=O)[O-])cc3)=[N+]([O-])C2c2ccc(N(C)C)cc2)cc1 (centres undefined),Activity,Mus musculus [1],40.4%
same,logP,[2],2.32
O=[N+]([O-])c1ccc(C2=[N+]([O-])C(c3ccccc3)N(c3ccccc3)C2)cc1 (centres undefined),Activity,Mus musculus [1],36.4%
same,logP,[2],2.45
NC(=O)CN1CCCC1=O [PIRACETAM],Activity,Mus musculus [3],51.3%
